Test results reported in PubChem BioAssay (NCI).
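Cells were grown in 96-well plates and exposed to each compound for 48 hours at five concentrations; endpoints were interpolated linearly between bracketing concentrations, or set to the highest concentration if not reached. GI50 is the concentration that inhibits growth by half. TGI denotes the concentration required for complete inhibition of growth.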

Tests used:
Test in all cases: NCI tumour cell line growth inhibition, 48 h
NCI-H226 lung = test system: NCI-H226 lung
SNB-75 CNS = test system: SNB-75 CNS
A549 NSCLC = test system: A549 NSCLC
HT29 colon = test system: HT29 colon
NCI-H23 lung = test system: NCI-H23 lung
SF-539 CNS = test system: SF-539 CNS
KM12 colon = test system: KM12 colon
SK-OV-3 ovarian = test system: SK-OV-3 ovarian
RPMI-8226 leukemia = test system: RPMI-8226 leukemia
MCF7 breast = test system: MCF7 breast

Structure (SMILES) | TGI (NCI-H226 lung) | TGI (SNB-75 CNS) | TGI (A549 NSCLC) | TGI (HT29 colon) | TGI (NCI-H23 lung) | TGI (SF-539 CNS) | TGI (KM12 colon) | TGI (SK-OV-3 ovarian) | TGI (RPMI-8226 leukemia) | GI50 (NCI-H226 lung) | GI50 (SNB-75 CNS) | GI50 (A549 NSCLC) | GI50 (RPMI-8226 leukemia) | GI50 (HT29 colon) | GI50 (NCI-H23 lung) | GI50 (SF-539 CNS) | GI50 (KM12 colon) | GI50 (SK-OV-3 ovarian) | GI50 (MCF7 breast) | TGI (MCF7 breast)
CC1(C)OC2OC(/C=C/[N+](=O)[O-])C3OC(C)(C)OC3C2O1 (centres undefined) | 37.1 µM | 34.8 µM | 42.6 µM | 40.1 µM | 37.6 µM | 28.3 µM | 31.5 µM | 34.8 µM |  |  |  |  |  |  |  |  |  |  |  | 
O=C(NC(=Nc1ccccc1)SCCSC(=Nc1ccccc1)NC(=O)c1ccccc1)c1ccccc1 | > 100 µM | > 100 µM | > 100 µM | > 100 µM | > 100 µM | > 100 µM | > 100 µM |  | > 100 µM |  |  |  |  |  |  |  |  |  |  | 
COc1cc(CC2c3cc(OC)c(OC)cc3CCN2C)c(C(=O)O)cc1OC (centres undefined) | > 100 µM | > 100 µM | > 100 µM | > 100 µM | > 100 µM | > 100 µM | > 100 µM | > 100 µM | > 100 µM |  |  |  |  |  |  |  |  |  |  | 
CCC[CH2][Sn]1([CH2]CCC)[O]C(=O)c2cccnc2[S]1 | 29.1 µM | 7.82 µM | 31.6 µM | 24.7 µM | 5.41 µM | 8.39 µM | 19.6 µM | 31.4 µM | 5.29 µM | 15.3 µM | 2.54 µM | 16.8 µM | 1.48 µM | 11.1 µM | 2.13 µM | 3.17 µM | 6.92 µM | 16.9 µM |  | 
CC[C@H]1CNC(=O)CC1CC(=O)OC (some centres undefined) | > 100 µM | > 100 µM | > 100 µM | > 100 µM | > 100 µM | > 100 µM | > 100 µM | > 100 µM |  |  |  |  |  |  |  |  |  |  |  | 
CC1(C)N=C(N)N=C(N)N1c1cccc(CC(=O)Nc2ccccc2)c1 | > 100 µM | > 100 µM | > 100 µM | > 100 µM | > 100 µM | > 100 µM | > 100 µM | > 100 µM |  | > 100 µM | 15.4 µM | 3.54 µM |  | 2.35 µM | 14.8 µM | 10.5 µM | 15.1 µM | > 100 µM | 7.56 µM | > 100 µM
N#CC1(C2CC(=O)N(c3ccccc3)C2=O)CCCCC1=O (centres undefined) | > 100 µM | > 100 µM | > 100 µM | > 100 µM | > 100 µM | > 100 µM | > 100 µM | > 100 µM | > 100 µM |  |  |  |  |  |  |  |  |  |  | 
C/C(=N\NC(N)=S)c1ccc(Oc2ccccc2)cc1 |  | 33.6 µM | 74.4 µM |  | 83.3 µM | 17.6 µM |  | 36.3 µM | 10.9 µM |  |  |  |  |  |  |  |  |  |  | 
C=CC(C)(C)[C@@]12CC3C(=O)N[C@@H](Cc4ccccc4)C(=O)N3[C@@H]1N(C(C)=O)c1ccccc12 (some centres undefined) | > 100 µM | > 100 µM | > 100 µM | > 100 µM | > 100 µM | > 100 µM | > 100 µM | > 100 µM | > 100 µM |  |  |  |  |  |  |  |  |  |  | 
O=C(CC1(O)C(=O)Nc2ccc(Br)cc21)c1cccc([N+](=O)[O-])c1 (centres undefined) | 82.5 µM | 97.2 µM | > 100 µM | > 100 µM | > 100 µM |  | > 100 µM | > 100 µM | 57.9 µM |  |  |  |  |  |  |  |  |  |  | 
CCCCP1(=O)C=CC(Cl)=C(C)C1 (centres undefined) |  |  | > 100 µM | > 100 µM | > 100 µM | > 100 µM | > 100 µM |  |  |  |  |  |  |  |  |  |  |  |  | 
C=CN(C(=O)N1CCN(c2cc3c(cc2F)c(=O)c(C(=O)O)cn3C2CC2)CC1)c1nc(-c2ccc(C)cc2)cs1 | > 100 µM | 6.59 µM | > 100 µM | > 100 µM | 16.1 µM |  | > 100 µM |  | > 100 µM | 2.91 µM | 2.13 µM | 3.17 µM | 0.53 µM | 3.31 µM | 3.12 µM |  | 3.45 µM |  | 2.88 µM | 11.5 µM
N#Cc1cccc(C2SCc3nc4ccccc4n32)c1 (centres undefined) | 96.8 µM |  | > 100 µM | > 100 µM | > 100 µM | > 100 µM | > 100 µM | > 100 µM |  |  |  |  |  |  |  |  |  |  |  | 
CCn1c(O)c(C(=O)Nc2cccs2)c(=O)n(CC)c1=S | 56.8 µM | 33.4 µM | 49.8 µM | 31.9 µM | 30.5 µM | 33.1 µM | 32.6 µM | 77.9 µM | 55.1 µM |  |  |  |  |  |  |  |  |  |  | 
N=C(N)c1ccc(-c2ccc(-c3cccs3)s2)cc1F | 3.86 µM | 2.66 µM | 1.27 µM |  | 3.27 µM | 3.38 µM | 2.38 µM |  | 0.951 µM | 1.74 µM | 1.34 µM | 0.0305 µM | 0.288 µM |  | 1.63 µM | 1.35 µM | 1.01 µM |  | 0.5 µM | 2.26 µM
O=C(Nc1cc(Cl)ccc1Cl)c1cc2ccccc2oc1=O |  | 62.9 µM | > 100 µM | > 100 µM | > 100 µM | > 100 µM | > 100 µM | > 100 µM | > 100 µM |  |  |  |  |  |  |  |  |  |  | 
O=C1C(=C2C(=O)c3ccccc3[N+]2=O)N([O-])c2ccccc21 | 81.4 µM | 83.8 µM | > 100 µM | 94.1 µM | 77.7 µM | 47.7 µM |  | > 100 µM | 57.7 µM |  |  |  |  |  |  |  |  |  |  | 
CC1CC(=O)C(CC(=O)O)[C@H]1C(C(=O)C(=O)Nc1cc(Cl)ccc1Cl)[N+](=O)[O-] (some centres undefined) | > 100 µM | > 100 µM | > 100 µM | > 100 µM |  | > 100 µM | > 100 µM | > 100 µM | > 100 µM |  |  |  |  |  |  |  |  |  |  | 
COc1ccc(Cc2c3cc(OC)c(OC)cc3cc[n+]2C)cc1 | > 51.9 µM | 34.6 µM | > 46.5 µM | > 27.1 µM | > 40.2 µM | > 53.1 µM | > 23 µM | > 47.3 µM | > 100 µM |  |  |  |  |  |  |  |  |  |  | 
CCCCc1c2c([n+]([O-])c3c1CCCC3)CCCC2 | > 100 µM |  | > 100 µM | > 100 µM | > 100 µM | > 100 µM | > 100 µM | > 100 µM | > 100 µM |  |  |  |  |  |  |  |  |  |  | 
Cc1cc(Br)ccc1N=NC1C(=O)ON=C1c1ccccc1 (centres undefined) | > 100 µM | > 100 µM | > 100 µM | > 100 µM | > 100 µM | > 100 µM | > 100 µM | > 100 µM | > 100 µM |  |  |  |  |  |  |  |  |  |  | 
